Literature values in patent publication US20140243422A1, “METHODS OF TREATING BEHAVIORAL AND PSYCHIATRIC DISORDERS” (ELAN PHARMACEUTICALS, INC., priority 2011, published 2014).

System: brain myo-inositol levels
Settings: bipolar patients, therapeutic doses, within a few days; cited from earlier work

O=C([O-])[O-].[Li+].[Li+] [Lithium, lithium carbonate]
reduction of brain myo-inositol levels: ~30%
